Data as given in US4798832A, “Pyrido[1,2-a]pyrimidine compounds, corresponding intermediates and use as SRS-A antagonists” (Tokyo Tanabe Company, Limited, priority 1986, dated 1989).
Converted amounts (≈) assume the structure as drawn. Counter-ions that a name gives are not always drawn.

Key:
[1] = In vitro test: antagonistic effect on leukotriene D4-induced contraction of excised guinea pig terminal ileum; type: cell-based, guinea pig (male, Hartley strain); conditions: guinea pig terminal ileum contraction, leukotriene D4 0.3 ng/ml, with atropine and mepyramine; for IC50: Cavia porcellus
Procedure: (§1) The antagonistic effect on leukotriene D4 of the present compounds [I] was tested by using the terminal ileum excised from a male guinea pig of the Hartley strain. Specifically, the terminal ileum was suspended, under aerated conditions, in 10 ml of Tyrode's solution containing 5×10^-7 M atropine and 1×10^-6 M mepyramine. Then, a test compound and leukotriene D4 (manufactured by Wako Junyaku Co., Ltd.) were successively added thereto with an interval of 30 seconds. After the lapse of 4 to 6 minutes, the degree of contraction of the ileum was measured with a Model TD-112S Isotonic Transducer (manufactured by Nippon Koden Co., Ltd.). The test compound and leukotriene D4 were used in such amounts as to give concentrations of 10^-9 to 10^-3 g/ml and 0.3 ng/ml, respectively.
(§2) The antagonistic effect on leukotriene D4 of each test compound was evaluated in terms of the concentration of the test compound at which the ileum contraction reaction induced by leukotriene D4 was inhibited by 50% (hereinafter referred to as IC50) Specifically, at varying concentrations of each test compound, the percent inhibition of contraction was calculated from the measured degree of contraction of the ileum according the following equation [formula] On the basis of the data thus obtained, a dose-response curve was prepared and used to determine the IC50 value of the test compound.

[2] = Toxicity test: acute toxicity (LD50) in rats; conditions: rat, in vivo
Procedure: (§3) The acute toxicity (LD50) of several typical examples of the present compounds [I] was tested of 5-weeks-old male ddY strain mice and male SD straih rats. For this purpose, the compounds of Examples 2 and 4 were selected as typical examples. […] For rats, their LD50 values were not less than 4.0 g/kg when administered orally, and not less than 200 mg/kg when administered intravenously.

[3] = Toxicity test: acute toxicity (LD50) in mice; conditions: mouse, in vivo
Procedure: as §3

leukotriene D4 = assay: In vitro test: antagonistic effect on leukotriene D4-induced contraction of excised guinea pig terminal ileum; type: cell-based, guinea pig (male, Hartley strain); conditions: confirmatory experiment by the inventors; result in words
Procedure: as §1, §2

With `CCCc1c(OCc2cc(Br)cn3c(=O)c(CCC(=O)O)cnc23)ccc(C(C)=O)c1O` [Example 5, 3-[9-(4-Acetyl-3-hydroxy-2-n-propylphenoxymethyl)-7-bromo-4-oxo-pyrido[1,2-a]pyrimidin-3-yl]propionic acid] as the compound, how does the IC50 [1] read?
The IC50 was 0.3 mg/L (≈ 0.596 µM).

Which IC50 [1] does the source give for `CCCc1c(OCc2cccn3c(=O)c(C(=O)O)cnc23)ccc(C(C)=O)c1O` [Example 1, 9-(4-Acetyl-3-hydroxy-2-n-propylphenoxymethyl)-4-oxo-pyrido[1,2-a]pyrimidine-3-carboxylic acid] here?
Its IC50 is 0.03 mg/L (≈ 0.0757 µM).

With `CCCc1c(OCc2cccn3c(=O)c(CCC(=O)O)cnc23)ccc(C(C)=O)c1O` [Example 7, 3-[9-(4-Acetyl-3-hydroxy-2-n-propylphenoxymethyl)-4-oxo-pyrido[1,2-a]pyrimidin-3-yl]propionic acid potassium salt] as the compound, how does the “Antagonistic effect on leukotriene D4 IC50” value ([1]; potassium salt) read?
The value was 0.03 mg/L.

Which IC50 [1] does the source give for `CCCc1c(OCc2c(C)ccn3c(=O)c(CC(=O)O)cnc23)ccc(C(C)=O)c1O` [Example 3, [9-(4-Acetyl-3-hydroxy-2-n-propylphenoxymethyl)-8-methyl-4-oxo-pyrido[1,2-a]pyrimidin-3-yl]acetic acid] here?
The IC50 was 0.8 mg/L (≈ 1.88 µM).

For `CCCc1c(OCc2cccn3c(=O)c(CC(=O)O)cnc23)ccc(C(C)=O)c1O` [Example 2, [9-(4-Acetyl-3-hydroxy-2-n-propylphenoxymethyl)-4-oxo-pyrido[1,2-a]pyrimidin-3-yl]acetic acid], which IC50 [1] is on record?
Its IC50 is 0.04 mg/L (≈ 0.0975 µM).

And the LD50 ([2]; intravenous)?
The LD50 was ≥ 200 mg/kg.

What about the LD50 ([2]; oral) of the same compound?
Its LD50 is ≥ 4000 mg/kg.

And the LD50 ([3]; intravenous)?
Its LD50 is ≥ 100 mg/kg.

What about the LD50 ([3]; oral) of the same compound?
Its LD50 is ≥ 4000 mg/kg.

Which “antagonistic effect on SRS-A as represented by leukotriene D4” value (leukotriene D4) does the source give for `O=C(O)c1cnc2c(OCc3ccccc3)cccn2c1=O` [Compound A, 9-Benzyloxy-4-oxo-pyrido[1,2-a]pyrimidine-3-carboxylic acid, reference compound] here?
Its value is “no antagonistic effect on SRS-A”.

What about the IC50 [1] of the same compound?
Its IC50 is ≥ 10 mg/L.

For `CCCc1c(OCc2cccn3c(=O)c(CCC(=O)O)cnc23)ccc(C(C)=O)c1O` [Example 4, 3-[9-(4-Acetyl-3-hydroxy-2-n-propylphenoxymethyl)-4-oxo-pyrido[1,2-a]pyrimidin-3-yl]propionic acid], which “Antagonistic effect on leukotriene D4 IC50” value [1] is on record?
Its value is 0.01 mg/L.

And the LD50 ([2]; intravenous)?
The LD50 was ≥ 200 mg/kg.

And the LD50 ([2]; oral)?
Its LD50 is ≥ 4000 mg/kg.

And the LD50 ([3]; intravenous)?
Its LD50 is ≥ 100 mg/kg.

And the LD50 ([3]; oral)?
The LD50 was ≥ 4000 mg/kg.

For `CCCc1c(OCc2ccc3ncc(CCC(=O)O)c(=O)n3c2)ccc(C(C)=O)c1O` [Example 6, 3-[7-(4-acetyl-3-hydroxy-2-n-propylphenoxymethyl)-4-oxo-pyrido[1,2-a]pyrimidin-3-yl]propionic acid], which IC50 [1] is on record?
Its IC50 is 0.4 mg/L (≈ 0.942 µM).
